# Measurements as given in article PMC11309765, “Mechanism of the blood-brain barrier modulation by cadherin peptides” (Exploration of drug science, 2024).
# Entries after “also recorded” stand apart in the source; their conditions may differ. Where a SMILES comes first, the peptide text is derived from it. Bridges are numbered along the chain shown (N, C = ends).
# What was measured:
# [1] = molecular target: T1, EC1 domain of human E-cadherin (Homo sapiens, UniProt P12830); assay: 1H-15N HSQC NMR titration of 15N-labeled EC1 (chemical shift perturbation, CSP); format: binding
# T1 construct: Strep-tag I (WSHPQFEK) (C); factor Xa cleavage site (IEGR) linker (C); made in house; host or cells: E. coli BL21(DE3), plasmid pASK-IBA6
# T1 sequence (P12830 155-292): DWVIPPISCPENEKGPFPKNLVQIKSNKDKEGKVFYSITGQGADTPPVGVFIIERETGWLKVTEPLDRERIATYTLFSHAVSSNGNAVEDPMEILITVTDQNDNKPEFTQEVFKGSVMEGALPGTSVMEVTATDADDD
# Description: Our previous method was used to express and purify the ^15N-labeled EC1 domain [22]. Briefly, the plasmid (pASK-IBA6, Genosys, Woodland, TX) contains DNA construct of 138 amino acid residues. The EC1 domain has 110 residues connected to 28 amino acids from the EC2 domain sequence at the C-terminus tail followed by a WSHPQFEK sequence of Streptag I that is linked by an IEGR sequence for a factor Xa cleavage. Then, the plasmid was transformed into competent E. coli BL21(DE3) cells (New England Biosciences, Ipswich, MA). The cells were incubated at 37°C overnight on a plate with lysogeny broth (LB) agar containing […] ampicillin. A single colony of E. coli cells was picked and incubated in 10 mL of LB media followed by the addition of 10 μL ampicillin at 100 mg/mL concentration. Then, the mixture was incubated in an orbital shaker at 250 rpm and 37°C. ^15N-labeled NH4Cl was added to 250 mL of M9 minimal media in 1 L Erlenmeyer flask to produce the ^15N-labeled EC1 domain. A 24 μL of anhydrotetracycline (2 mg/mL; Promega Inc., Madison, WI) was spiked into the cell culture when it reached OD550 of 0.5–0.6 to induce the EC1 protein expression. Then, the cell mixture was incubated at 30°C for 6–7 h followed by cell harvesting using centrifugation at 4,500 xg. The resulting cell pellets were stored at −80°C.
# For isolation of purified ^15N-EC1, E. coli cell pellets were lysed using 20,000 psi French press (Thermo Electron Corporation) in 10 mL of binding buffer. This binding buffer consists of 150 mM NaCl, 1.0 mM EDTA, 0.02% NaN3, and 100 mM Tris-HCl at pH = 8.0. The mixture was centrifuged at 21,000 xg, 4°C, and 1 h to get rid of cellular debris. The EC1 domain was in the supernatant and the Amicon Ultra protein concentrator [10 kDa molecular weight (MW) cut-off, EMD Millipore, Billerica, MA] was used to concentrate the protein upon centrifugation at 4,500 rpm, 20 min, and 4°C. […] The purity of pooled EC1 fractions was evaluated by SDS-PAGE. Protein concentration was calculated using UV spectrometry at 280 nm (coefficient absorption = 19,480 M^–1 cm^–1). […]
# [2] = system: BBB tight junctions; details: cited from earlier work
# Description: As BBBMs, the in vivo activities of ADT and HAV peptides to modulate the BBB were transient and reversible. […] Different cadherin peptides produced different durations of the BBB opening for different sizes of del ...
# [3] = system: blood-brain barrier (BBB); details: in-situ rat brain perfusion; cited from earlier work
# [4] = system: Madin-Darby canine kidney (MDCK) cell monolayers; details: Val6 mutation; cited from earlier work
# Description: Currently, the mechanism of binding as well as the EC1 binding site of ADT peptides have not been elucidated; thus, this study was aimed at using nuclear magnetic resonance (NMR) and molecular docking experiments to determine ADTC5 binding properties (Table 1) on EC1. […] Therefore, the Val6 residue was mutated to the Glu6 or Tyr6 re ...
# [5] = system: blood-brain barrier (BBB); details: cited from earlier work
# Description: In addition, Gd-DTPA delivery to the brain was enhanced when co-administered with ADTC5 in living mice upon detection with magnetic resonance imaging (MRI). […] Different cadherin peptides produced different durations of the BBB opening for different sizes of del ...
compound,measurement,setting,value
CC(=O)N[C@H]1CSSC[C@@H](C(N)=O)NC(=O)[C@H](C(C)C)NC(=O)[C@@H]2CCCN2C(=O)[C@@H]2CCCN2C(=O)[C@H]([C@@H](C)O)NC(=O)[C@H](CC(=O)O)NC1=O [ADTC5] (Ac-CDTPPVC-NH2; disulfide 1-7),EC1 residues with largest/significant NH chemical shift perturbation,"[1]; 1H-15N HSQC titration, pH 6.0","One of the dramatic changes was seen for residue I4 with larger CSP compared to other residues; also recorded: In addition to the strong effect of the NH of I4 residue, significant shifts were also observed in the NHs of I38, I53, V98, D103, and F113 residues; also recorded: large CSP changes on D103, and F113 residues at the C-terminal tail; also recorded: large CSP changes were also observed at the I4, I7, and S8 residues at the N-terminus domain"
same,relative binding affinity to EC1,"[1]; comparison among ADTC5, ADTC7, ADTC9",highest binding affinity to the EC1 domain of E-cadherin compared to ADTC7 and ADTC9; also recorded: binds better to the EC1 domain compared to ADTC7 and ADTC9
same,CSP result in words,"[1]; comparison of CSP profiles / conformational effect, 1H-15N HSQC","influences the conformation of the EC1 C-terminal tail; also recorded: All seven clusters have consistent high CSPs on active residues T97, V98, and D103; also recorded: binding of ADTC5 to EC1 may induce conformational change at the C-terminal tail; also recorded: binding of ADTC5 can cause conformational change at the N-terminal region or domain swapping region"
same,anatomical structure of BBB tight junctions,[2],did not change
same,delivery of various molecules to the brain,[3],enhanced the delivery of various molecules to the brain
same,modulatory activity in MDCK cell monolayers,[4],mutation of this residue reduced inhibitory activity in preventing the resealing of the paracellular pathway
same,duration of paracellular porosity for Galbumin,[5]; 65 kDa Galbumin,less than 20 min
same,delivery of mAb to brain,[5]; 150 kDa mAb,had to be administered together with 150 kDa mAb for delivering mAb to the brain
same,Gd-DTPA delivery to the brain,"[5]; co-administered, living mice, MRI",enhanced
same,"brain deposition of peptides, Galbumin and mAb","[5]; i.v., co-administered, mice, mass spectrometry, NIRF, MRI","significantly enhanced brain deposition of peptides, Gd-labeled albumin (Galbumin), and mAb"
same,duration of in vivo paracellular opening for Gd-DTPA,[5]; small molecule Gd-DTPA,less than 4 h
